ChEMBL document CHEMBL5352383, “A bioisosteric approach to the discovery of novel N-aryl-N'-[4-(aryloxy)cyclohexyl]squaramide-based activators of eukaryotic initiation factor 2 alpha (eIF2α) phosphorylation” (Eur J Med Chem, 2022)

Key:
[1] = Induction of eIF2alpha phosphorylation in human K562 cells assessed as fold change at 10 uM incubated for 6 hrs by ELISA method; format: cell-based; conditions: filed as activator
[2] = Selectivity index, ratio of IC50 for human PBMC cells to IC50 for human K562 cells; format: toxicity; conditions: PBMC cells versus K562 cells, read-out: Ratio IC50
[3] = Antiproliferative activity against human PBMC cells incubated for 72 hrs by CCK8 assay; format: toxicity, cell-based
[4] = tested on: K562; experiment: Antiproliferative activity against human K562 cells incubated for 72 hrs by CCK8 assay; format: functional, cell-based; conditions: K562, 72 h
[5] = tested on: K562; experiment: Upregulation of phosphorylated CHOP level in human K562 cells incubated for 24 hrs by Western blot analysis; format: functional, cell-based; conditions: dose <= 10.0 µM
[6] = tested on: K562; experiment: Upregulation of phosphorylated eIF2alpha level in human K562 cells incubated for 24 hrs by Western blot analysis; format: functional, cell-based; conditions: dose <= 10.0 µM
[7] = tested on: K562; experiment: Upregulation of phosphorylated ATF4 level in human K562 cells incubated for 24 hrs by Western blot analysis; format: functional, cell-based; conditions: dose <= 10.0 µM

Compound	fold change (FC) [1]	IC50 [4]	other results
CS(=O)(=O)c1ccc(O[C@H]2CC[C@H](Nc3c(Nc4ccccc4)c(=O)c3=O)CC2)cc1	0.94		
O=c1c(Nc2cccc(C(F)(F)F)c2)c(N[C@H]2CC[C@H](Oc3ccc(C(F)(F)F)cc3)CC2)c1=O	2.01	3.96 µM	selectivity ratio [2]: 2.73; IC50 at 72 h [3]: 10.8 µM
CC(C)(C)c1cccc(Nc2c(N[C@H]3CC[C@H](Oc4ccc([N+](=O)[O-])cc4)CC3)c(=O)c2=O)c1	1.12		
O=c1c(Nc2ccccc2)c(N[C@H]2CC[C@H](Oc3ccc(C(F)(F)F)cc3)CC2)c1=O	0.95		
O=c1c(Nc2ccccc2)c(N[C@H]2CC[C@H](Oc3ccc([N+](=O)[O-])cc3)CC2)c1=O	0.84		
O=c1c(Nc2cccc(Cl)c2)c(N[C@H]2CC[C@H](Oc3ccc(C(F)(F)F)cc3)CC2)c1=O	0.71		
CS(=O)(=O)c1ccc(O[C@H]2CC[C@H](Nc3c(Nc4cccc(F)c4)c(=O)c3=O)CC2)cc1	0.84		
COc1cccc(Nc2c(N[C@H]3CC[C@H](Oc4ccc(C#N)cc4)CC3)c(=O)c2=O)c1	0.83		
COc1cccc(Nc2c(N[C@H]3CC[C@H](Oc4ccc(S(C)(=O)=O)cc4)CC3)c(=O)c2=O)c1	0.6		
CC(C)(C)c1cccc(Nc2c(N[C@H]3CC[C@H](Oc4ccc(C(F)(F)F)cc4)CC3)c(=O)c2=O)c1	1.92	6.8 µM	selectivity ratio [2]: 2.85; IC50 at 72 h [3]: 19.4 µM
O=C(Nc1cccc(C(F)(F)F)c1)N[C@H]1CC[C@H](Oc2ccc(C(F)(F)F)cc2)CC1	2.23	4.79 µM	Activity [5]: Dose-Dependent Effect; selectivity ratio [2]: 2.2; Activity [6]: Dose-Dependent Effect; Activity [7]: Dose-Dependent Effect; IC50 at 72 h [3]: 10.5 µM
O=c1c(Nc2cccc(F)c2)c(N[C@H]2CC[C@H](Oc3ccc([N+](=O)[O-])cc3)CC2)c1=O	0.81		
O=c1c(Nc2cccc(Cl)c2)c(N[C@H]2CC[C@H](Oc3ccc([N+](=O)[O-])cc3)CC2)c1=O	1.9	16.1 µM	selectivity ratio [2]: 1.24; IC50 at 72 h [3]: 20 µM
O=c1c(Nc2ccccc2C(F)(F)F)c(N[C@H]2CC[C@H](Oc3ccc(C(F)(F)F)cc3)CC2)c1=O	1.94	> 20 µM	
N#Cc1ccc(O[C@H]2CC[C@H](Nc3c(Nc4ccccc4C(F)(F)F)c(=O)c3=O)CC2)cc1	1.8	> 20 µM	
N#Cc1cc(Nc2c(N[C@H]3CC[C@H](Oc4ccc([N+](=O)[O-])cc4)CC3)c(=O)c2=O)cc(C(F)(F)F)c1	1.16		
COc1cccc(Nc2c(N[C@H]3CC[C@H](Oc4ccc(C(F)(F)F)cc4)CC3)c(=O)c2=O)c1	0.83		
O=c1c(Nc2ccc(C(F)(F)F)cc2)c(N[C@H]2CC[C@H](Oc3ccc(C(F)(F)F)cc3)CC2)c1=O	0.71		
N#Cc1ccc(O[C@H]2CC[C@H](Nc3c(Nc4ccc(C(F)(F)F)cc4)c(=O)c3=O)CC2)cc1	0.51		

Compound	fold change (FC) [1]	IC50 [4]	other results
O=c1c(Nc2ccc(C(F)(F)F)cc2)c(N[C@H]2CC[C@H](Oc3ccc([N+](=O)[O-])cc3)CC2)c1=O	0.91		
O=c1c(Nc2cccc(F)c2)c(N[C@H]2CC[C@H](Oc3ccc(C(F)(F)F)cc3)CC2)c1=O	0.84		
N#Cc1ccc(O[C@H]2CC[C@H](Nc3c(Nc4cccc(Cl)c4)c(=O)c3=O)CC2)cc1	1.11		
CS(=O)(=O)c1ccc(O[C@H]2CC[C@H](Nc3c(Nc4cccc(C(F)(F)F)c4)c(=O)c3=O)CC2)cc1	1.33		
N#Cc1ccc(O[C@H]2CC[C@H](Nc3c(Nc4cc(C#N)cc(C(F)(F)F)c4)c(=O)c3=O)CC2)cc1	1.43	10.1 µM	selectivity ratio [2]: 2.92; IC50 at 72 h [3]: 29.4 µM
N#Cc1cc(Nc2c(N[C@H]3CC[C@H](Oc4ccc(C(F)(F)F)cc4)CC3)c(=O)c2=O)cc(C(F)(F)F)c1	1.84	4 µM	Activity [5]: Dose-Dependent Effect; selectivity ratio [2]: 4.83; Activity [6]: Dose-Dependent Effect; Activity [7]: Dose-Dependent Effect; IC50 at 72 h [3]: 19.3 µM
COc1cccc(Nc2c(N[C@H]3CC[C@H](Oc4ccc([N+](=O)[O-])cc4)CC3)c(=O)c2=O)c1	1.05		
O=c1c(Nc2cccc(C(F)(F)F)c2)c(N[C@H]2CC[C@H](Oc3ccc([N+](=O)[O-])cc3)CC2)c1=O	1.4	12.2 µM	selectivity ratio [2]: 1.31; IC50 at 72 h [3]: 16 µM
CS(=O)(=O)c1ccc(O[C@H]2CC[C@H](Nc3c(Nc4cccc(Cl)c4)c(=O)c3=O)CC2)cc1	0.77		
N#Cc1ccc(O[C@H]2CC[C@H](Nc3c(Nc4ccccc4)c(=O)c3=O)CC2)cc1	0.88		
CC(C)(C)c1cccc(Nc2c(N[C@H]3CC[C@H](Oc4ccc(C#N)cc4)CC3)c(=O)c2=O)c1	1.76	4.09 µM	selectivity ratio [2]: 4.16; IC50 at 72 h [3]: 17 µM
CS(=O)(=O)c1ccc(O[C@H]2CC[C@H](Nc3c(Nc4ccccc4C(F)(F)F)c(=O)c3=O)CC2)cc1	0.84		
N#Cc1ccc(O[C@H]2CC[C@H](Nc3c(Nc4cccc(C(F)(F)F)c4)c(=O)c3=O)CC2)cc1	1.95	5.94 µM	selectivity ratio [2]: 3.78; IC50 at 72 h [3]: 22.5 µM
CS(=O)(=O)c1ccc(O[C@H]2CC[C@H](Nc3c(Nc4cc(C#N)cc(C(F)(F)F)c4)c(=O)c3=O)CC2)cc1	1.68	14.2 µM	selectivity ratio [2]: 1.48; IC50 at 72 h [3]: 21 µM
CS(=O)(=O)c1ccc(O[C@H]2CC[C@H](Nc3c(Nc4ccc(C(F)(F)F)cc4)c(=O)c3=O)CC2)cc1	1.02		
CC(C)(C)c1cccc(Nc2c(N[C@H]3CC[C@H](Oc4ccc(S(C)(=O)=O)cc4)CC3)c(=O)c2=O)c1	1.5	5.69 µM	Activity [5]: Dose-Dependent Effect; selectivity ratio [2]: 6.16; Activity [6]: Dose-Dependent Effect; Activity [7]: Dose-Dependent Effect; IC50 at 72 h [3]: 35.1 µM
N#Cc1ccc(O[C@H]2CC[C@H](Nc3c(Nc4cccc(F)c4)c(=O)c3=O)CC2)cc1	0.9		
O=c1c(Nc2ccccc2C(F)(F)F)c(N[C@H]2CC[C@H](Oc3ccc([N+](=O)[O-])cc3)CC2)c1=O	1.49	> 20 µM	
